# Values quoted from earlier work, collected in paper PMC7898221 (Drug Design, Development and Therapy, 2021).
compound,measurement,setting,value
CC(C)c1nc(N(C)S(C)(=O)=O)nc(-c2ccc(F)cc2)c1/C=C/[C@@H](O)C[C@@H](O)CC(=O)O [Rosuvastatin],Terminal t1/2,,12.3 ± 5.8 h
same,Tmax,after dosing,1.0 to 5.0 h
N[C@@H](CC(=O)N1CCc2c(nc(C(F)(F)F)nc2C(F)(F)F)C1)CN1CC(F)(F)CCC1=O [Gemigliptin],Time to maximum plasma concentration (Tmax),after dosing,0.5 to 3.0 h
same,Fraction metabolized by CYP3A4 into LC15-0636,CYP3A4,~ 10%
